In patent US20070179121A1, “Method of treating pediatric patients with corticosteroids” (priority 2006, published 2007):

Assays:
[1] = Skin safety evaluations: signs and symptoms of skin atrophy; type: in vivo, human (pediatric patients); conditions: for Patients who showed new signs of skin atrophy at Week 2 not present at Baseline: 5/62
Excerpt: (§1) Patients who met the inclusion/exclusion criteria were randomized to receive topical fluocinonide either qd or bid. Patients/guardians were instructed to apply a thin layer of the study product to all treatable areas once or twice daily for 14 days. If the areas to be treated were hairy, patients/guardians were instructed to part the hair to allow direct contact between the study product and the lesion. Patients/guardians were also instructed not to apply study product to lesions of the face, groin, perianal area, and axillae. At the end of Weeks 1, 2, and 4, patients returned to the study site in order for the investigator to perform designated evaluations, review treatment compliance and concomitant therapy, and to collect information regarding adverse events.
Specific skin safety evaluations were performed at each study visit with regard to all treated lesions by noting the presence or absence of the following 8 signs and symptoms of skin atrophy: telangiectasia, transparency, loss of elasticity, loss of normal skin markings, thinning, striae, pigmentation changes, and bruising.

[2] = Efficacy: investigator rating of atopic dermatitis severity; type: in vivo, human (pediatric patients); conditions: for Patients who continued to show an improvement of clear or almost clear compared to Baseline: 2-week follow-up visit
Excerpt: as §1
Efficacy was assessed by observing the change in the severity of atopic dermatitis from Baseline to Week 2 and Week 4. A disease exacerbation requiring more aggressive treatment than previously used was considered an adverse event.
The sole efficacy variable in the study was an investigator rating of skin disease severity performed at Screening, at end of treatment, and at a follow-up visit 4 weeks after the start of study treatment. Fluocinonide administered either qd or bid appears to be effective against atopic dermatitis in children aged 3 months to 17 years. In each of the 4 cohorts of this study, more than 90% of the patients in both the fluocinonide qd and bid group were rated by the investigator as showing an improvement in their disease status or as clear or almost clear of disease at the end of the treatment period. The qd regimen appeared to be as effective as the bid regimen across all age groups.

## CC(=O)OCC(=O)[C@@]12OC(C)(C)O[C@@H]1C[C@H]1[C@@H]3C[C@H](F)C4=CC(=O)C=C[C@]4(C)[C@@]3(F)[C@@H](O)C[C@@]12C [Fluocinonide, pregna-1,4-diene-3,20-dione,21-(acetyloxy)-6,9-difluoro-11-hydroxy-16, 17-[(1-methylethylidene)bis(oxy)]-,(6α., 11β,16α)-]
[1]; Cohort 1 (12-<18), bid
  Number (%) of patients who showed new signs at Week 2 not present at Baseline: 2 (12.5) Number (%)
[1]; Cohort 1 (12-<18), qd
  Number (%) of patients who showed new signs at Week 2 not present at Baseline: 2 (13.3) Number (%)
[1]; Cohort 2 (6-<12), bid
  Number (%) of patients who showed new signs at Week 2 not present at Baseline: 1 (6.3) Number (%)
[1]; Cohort 2 (6-<12), qd
  Number (%) of patients who showed new signs at Week 2 not present at Baseline: 0 Number (%)
[1]; Cohort 3 (2-<6), bid
  Number (%) of patients who showed new signs at Week 2 not present at Baseline: 0 Number (%)
[1]; Cohort 3 (2-<6), qd
  Number (%) of patients who showed new signs at Week 2 not present at Baseline: 1 (6.7) Number (%)
[1]; Cohort 4 (3 months to <2 year), bid
  Number (%) of patients who showed new signs at Week 2 not present at Baseline: 2 (13.3) Number (%)
[1]; Cohort 4 (3 months to <2 year), qd
  Number (%) of patients who showed new signs at Week 2 not present at Baseline: 2 (12.5) Number (%)
[1]; bid treatment group overall
  Patients who showed new signs of skin atrophy at Week 2 not present at Baseline: 8.1%
[1]; qd treatment group overall
  Patients who showed new signs of skin atrophy at Week 2 not present at Baseline: 8.1%
[2]; each dosage group in Cohort 1 and Cohort 3
  Patients who continued to show an improvement of clear or almost clear compared to Baseline: > 80%
[2]; each dosage group in Cohort 2
  Patients who continued to show an improvement of clear or almost clear compared to Baseline: > 70%
[2]; each dosage group in Cohort 4
  Patients who continued to show an improvement of clear or almost clear compared to Baseline: > 90%
[2]; end of treatment period vs Baseline, Cohort 1 and Cohort 2, bid
  Patients rated as showing an improvement in disease status or as clear or almost clear of disease: > 90%
[2]; end of treatment period vs Baseline, Cohort 1 and Cohort 2, qd
  Patients rated as showing an improvement in disease status or as clear or almost clear of disease: all of the patients
[2]; end of treatment period, Cohorts 3 and 4, both qd and bid groups
  Patients rated as showing an improvement in disease status or as clear or almost clear of disease: > 90%
[2]; end of treatment period, each of the 4 cohorts, both qd and bid group
  Patients rated as showing an improvement in disease status or as clear or almost clear of disease: more than 90%
